Data published in patent US20230279341A1, “NOVEL FAECALIBACTERIUM PRAUSNITZII STRAIN EB-FPDK9 AND USE THEREOF” (ENTEROBIOME INC., priority 2020, published 2023).
In brackets after ≈: the same amount, converted by molar mass.

Legend:
Assay type in all cases: cell-based
[1] = test system: Faecalibacterium prausnitzii DSM 17677^T; test: MIC, liquid medium microdilution method (CLSI), standard strain
[2] = test system: Faecalibacterium prausnitzii EB-FPDK9 strain; test: MIC, liquid medium microdilution method (CLSI), EB-FPDK9 strain; settings: for Resistance or susceptibility of the EB-FPDK9 strain to the antimicrobial agent, in words: text summary of Table 4
[3] = test system: Bacteroides thetiotaomicron ATCC 29741; test: MIC, liquid medium microdilution method (CLSI), QC strain

O=C(N[C@H](CO)[C@H](O)c1ccc([N+](=O)[O-])cc1)C(Cl)Cl [CHL, chloramphenicol]
Susceptibility class (S/I/R), DSM 17677^T ([1]; CHL breakpoints): R (≥32) | Susceptibility class (S/I/R), EB-FPDK9 ([2]; CHL breakpoints): R (≥32) | Resistance or susceptibility of the EB-FPDK9 strain to the antimicrobial agent, in words [2]: resistance

CCC[C@@H]1C[C@@H](C(=O)N[C@@H]([C@H]2O[C@H](SC)[C@H](O)[C@@H](O)[C@H]2O)[C@H](C)Cl)N(C)C1 [CLI, clindamycin]
Susceptibility class (S/I/R), DSM 17677^T ([1]; CLI breakpoints): S (≤2) | Susceptibility class (S/I/R), EB-FPDK9 ([2]; CLI breakpoints): S (≤2)

CO/N=C(\C(=O)N[C@@H]1C(=O)N2C(C(=O)O)=CCS[C@H]12)c1csc(N)n1 [CTZ, ceftizoxime]
Susceptibility class (S/I/R), DSM 17677^T ([1]; CTZ breakpoints): I (64) | Susceptibility class (S/I/R), EB-FPDK9 ([2]; CTZ breakpoints): R (≥128) | Resistance or susceptibility of the EB-FPDK9 strain to the antimicrobial agent, in words [2]: resistance

C[C@@H](O)[C@H]1C(=O)N2C(C(=O)O)=C(S[C@@H]3CN[C@H](C(=O)N(C)C)C3)[C@H](C)[C@H]12 [MEM, meropenem]
MIC ([3]; Bacteroides, ATCC29741, read-out: MIC, QC ATCC 29741): 0.5 µg/mL (≈ 1.3 µM) | Susceptibility class (S/I/R), DSM 17677^T ([1]; MEM breakpoints): R (≥16) | Susceptibility class (S/I/R), EB-FPDK9 ([2]; MEM breakpoints): R (≥16) | Resistance or susceptibility of the EB-FPDK9 strain to the antimicrobial agent, in words [2]: resistance

Cc1ncc([N+](=O)[O-])n1CCO [MTZ, metronidazole]
Susceptibility class (S/I/R), DSM 17677^T ([1]; MTZ breakpoints): S (≤8) | Susceptibility class (S/I/R), EB-FPDK9 ([2]; MTZ breakpoints): S (≤8) | Resistance or susceptibility of the EB-FPDK9 strain to the antimicrobial agent, in words [2]: susceptibility

COc1c(N2C[C@@H]3CCCN[C@@H]3C2)c(F)cc2c(=O)c(C(=O)O)cn(C3CC3)c12 [MXF, moxifloxacin]
Susceptibility class (S/I/R), DSM 17677^T ([1]; MXF breakpoints): R (≥8) | Susceptibility class (S/I/R), EB-FPDK9 ([2]; MXF breakpoints): R (≥8)

Piperacillin-tazobactam [PTZ]
MIC, QC ATCC 29741 ([3]; Bacteroides thetiotaomicron ATCC 29741): 8/4 | MIC, test strain DSM 17677^T ([1]; F. prausnitzii DSM 17677^T): 256/4 | Susceptibility class (S/I/R), DSM 17677^T ([1]; PTZ breakpoints): R (≥128/4) | MIC, test strain EB-FPDK9 ([2]; F. prausnitzii EB-FPDK9): 32/4 | Susceptibility class (S/I/R), EB-FPDK9 ([2]; PTZ breakpoints): S (≤32/4) | Resistance or susceptibility of the EB-FPDK9 strain to the antimicrobial agent, in words [2]: susceptibility
